Experimental data published in PubChem BioAssay (NCI).
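These data come from cells grown in 96-well plates and exposed to compound for 48 hours at five concentrations. TGI is the concentration that stops growth completely.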

Assays:
Experiment in all cases: NCI tumour cell line growth inhibition, 48 h
TK-10 renal = system: TK-10 renal
SNB-19 CNS = system: SNB-19 CNS
COLO 205 colon = system: COLO 205 colon
EKVX NSCLC = system: EKVX NSCLC
DMS 114 small cell lung = system: DMS 114 small cell lung
RXF 393 renal = system: RXF 393 renal
KM20L2 colon = system: KM20L2 colon
NCI-H23 lung = system: NCI-H23 lung
SF-268 CNS = system: SF-268 CNS
HOP-92 NSCLC = system: HOP-92 NSCLC
NCI-H460 lung = system: NCI-H460 lung
SK-MEL-28 melanoma = system: SK-MEL-28 melanoma
HCT-15 colon = system: HCT-15 colon
M19-MEL melanoma = system: M19-MEL melanoma
OVCAR-4 ovarian = system: OVCAR-4 ovarian
786-0 renal = system: 786-0 renal
UO-31 renal = system: UO-31 renal
A549 NSCLC = system: A549 NSCLC
NCI-H522 lung = system: NCI-H522 lung
SK-MEL-2 melanoma = system: SK-MEL-2 melanoma
HOP-18 NSCLC = system: HOP-18 NSCLC
SK-MEL-5 melanoma = system: SK-MEL-5 melanoma
K-562 leukemia = system: K-562 leukemia
HCC-2998 colon = system: HCC-2998 colon
HL-60(TB) leukemia = system: HL-60(TB) leukemia
DLD-1 colon = system: DLD-1 colon
UACC-62 melanoma = system: UACC-62 melanoma
OVCAR-5 ovarian = system: OVCAR-5 ovarian
CAKI-1 renal = system: CAKI-1 renal
RXF-631 renal = system: RXF-631 renal
ACHN renal = system: ACHN renal
IGROV1 ovarian = system: IGROV1 ovarian
LOX IMVI melanoma = system: LOX IMVI melanoma
SW-620 colon = system: SW-620 colon
SF-295 CNS = system: SF-295 CNS
SNB-75 CNS = system: SNB-75 CNS
CCRF-CEM leukemia = system: CCRF-CEM leukemia
M14 melanoma = system: M14 melanoma
UACC-257 melanoma = system: UACC-257 melanoma
NCI-H226 lung = system: NCI-H226 lung
SF-539 CNS = system: SF-539 CNS
MALME-3M melanoma = system: MALME-3M melanoma
DMS 273 small cell lung = system: DMS 273 small cell lung
LXFL 529 NSCLC = system: LXFL 529 NSCLC
SK-OV-3 ovarian = system: SK-OV-3 ovarian
MOLT-4 leukemia = system: MOLT-4 leukemia
HCT-116 colon = system: HCT-116 colon
OVCAR-3 ovarian = system: OVCAR-3 ovarian
HT29 colon = system: HT29 colon
SN12C renal = system: SN12C renal
XF 498 CNS = system: XF 498 CNS
KM12 colon = system: KM12 colon
OVCAR-8 ovarian = system: OVCAR-8 ovarian
U251 CNS = system: U251 CNS
RPMI-8226 leukemia = system: RPMI-8226 leukemia
SNB-78 CNS = system: SNB-78 CNS
SR leukemia = system: SR leukemia

O=C(c1nc2ccc(Cl)cc2[nH]c1=O)C(O)c1ccco1 (configuration not stated)
TGI (TK-10 renal): > 100 µM | TGI (SNB-19 CNS): > 100 µM | TGI (COLO 205 colon): > 100 µM | TGI (EKVX NSCLC): > 100 µM | TGI (DMS 114 small cell lung): > 100 µM | TGI (RXF 393 renal): > 100 µM | TGI (KM20L2 colon): 85.1 µM | TGI (NCI-H23 lung): > 100 µM | TGI (SF-268 CNS): > 100 µM | TGI (HOP-92 NSCLC): > 100 µM | TGI (NCI-H460 lung): > 100 µM | TGI (SK-MEL-28 melanoma): > 100 µM | TGI (HCT-15 colon): 37.1 µM | TGI (M19-MEL melanoma): > 100 µM | TGI (OVCAR-4 ovarian): > 100 µM | TGI (786-0 renal): > 100 µM | TGI (UO-31 renal): > 100 µM | TGI (A549 NSCLC): > 100 µM | TGI (NCI-H522 lung): 32.2 µM | TGI (SK-MEL-2 melanoma): > 100 µM | TGI (HOP-18 NSCLC): > 100 µM | TGI (SK-MEL-5 melanoma): > 100 µM | TGI (K-562 leukemia): > 100 µM | TGI (HCC-2998 colon): > 100 µM | TGI (HL-60(TB) leukemia): > 100 µM | TGI (DLD-1 colon): > 100 µM | TGI (UACC-62 melanoma): > 100 µM | TGI (OVCAR-5 ovarian): > 100 µM | TGI (CAKI-1 renal): > 100 µM | TGI (RXF-631 renal): > 100 µM | TGI (ACHN renal): > 100 µM | TGI (IGROV1 ovarian): > 100 µM | TGI (LOX IMVI melanoma): > 100 µM | TGI (SW-620 colon): > 100 µM | TGI (SF-295 CNS): > 100 µM | TGI (SNB-75 CNS): > 100 µM | TGI (CCRF-CEM leukemia): > 100 µM | TGI (M14 melanoma): > 100 µM | TGI (UACC-257 melanoma): > 100 µM | TGI (NCI-H226 lung): > 100 µM | TGI (SF-539 CNS): > 100 µM | TGI (MALME-3M melanoma): > 100 µM | TGI (DMS 273 small cell lung): > 100 µM | TGI (LXFL 529 NSCLC): > 100 µM | TGI (SK-OV-3 ovarian): > 100 µM | TGI (MOLT-4 leukemia): > 100 µM | TGI (HCT-116 colon): > 100 µM | TGI (OVCAR-3 ovarian): > 100 µM | TGI (HT29 colon): > 100 µM

Nc1ncnc2c1N=CN(Oc1ccccc1)N2
TGI (SN12C renal): 43.7 µM | TGI (XF 498 CNS): > 100 µM | TGI (TK-10 renal): > 100 µM | TGI (KM12 colon): > 100 µM | TGI (COLO 205 colon): > 100 µM | TGI (OVCAR-8 ovarian): > 100 µM | TGI (EKVX NSCLC): > 100 µM | TGI (U251 CNS): > 100 µM | TGI (DMS 114 small cell lung): > 100 µM | TGI (RXF 393 renal): > 100 µM | TGI (RPMI-8226 leukemia): > 100 µM | TGI (KM20L2 colon): > 100 µM | TGI (NCI-H23 lung): > 100 µM | TGI (HOP-92 NSCLC): > 100 µM | TGI (NCI-H460 lung): > 100 µM | TGI (SK-MEL-28 melanoma): > 100 µM | TGI (HCT-15 colon): > 100 µM | TGI (M19-MEL melanoma): > 100 µM | TGI (OVCAR-4 ovarian): > 100 µM | TGI (786-0 renal): > 100 µM | TGI (A549 NSCLC): > 100 µM | TGI (SK-MEL-2 melanoma): > 100 µM | TGI (SK-MEL-5 melanoma): > 100 µM | TGI (K-562 leukemia): > 100 µM | TGI (DLD-1 colon): > 100 µM | TGI (UACC-62 melanoma): > 100 µM | TGI (OVCAR-5 ovarian): > 100 µM | TGI (CAKI-1 renal): > 100 µM | TGI (RXF-631 renal): > 100 µM | TGI (ACHN renal): > 100 µM | TGI (IGROV1 ovarian): > 100 µM | TGI (SW-620 colon): > 100 µM | TGI (SF-295 CNS): > 100 µM | TGI (SNB-75 CNS): > 100 µM | TGI (M14 melanoma): > 100 µM | TGI (UACC-257 melanoma): > 100 µM | TGI (NCI-H226 lung): > 100 µM | TGI (SNB-78 CNS): > 100 µM | TGI (SF-539 CNS): > 100 µM | TGI (MALME-3M melanoma): 32.2 µM | TGI (DMS 273 small cell lung): > 100 µM | TGI (LXFL 529 NSCLC): > 100 µM | TGI (SK-OV-3 ovarian): > 100 µM | TGI (SR leukemia): > 100 µM | TGI (MOLT-4 leukemia): > 100 µM | TGI (HCT-116 colon): > 100 µM | TGI (OVCAR-3 ovarian): > 100 µM | TGI (HT29 colon): > 100 µM
